Test results published in patent publication US11912650B2, “Bakuchiol derivatives, pharmaceutically acceptable salts thereof, and preparation method and use of the same” (priority 2020, dated 2024).
≈ marks a conversion by molar mass, not a printed value. Where a SMILES comes first, the peptide text is derived from it. The star is where a group is joined. X1 = C=C[C@](C)(/C=C/c1ccc(OCC(=O)*)cc1)CCC=C(C)C

How the values were obtained:
S. aureus ATCC29213 [1] = experiment: Antibacterial activity assay (broth dilution MIC); assay type: cell-based; conditions: Staphylococcus aureus, 37° C., 24 h, compounds 38, 44-45, 58-61, 63-64 with 0.05% Tween 80
Description: (§1) Antibacterial activity assay. The antibacterial activities of all the compounds were determined according to a broth dilution method specified in Clinical and Laboratory Standards Institute (CLSI) guidelines. Bacterial cells were inoculated on a Mueller-Hinton agar (MHA) plate for overnight culture, and the concentration of the bacterial cells was adjusted to about 1×10^6 colony-forming units (CFU)/mL with phosphate buffered saline (PBS). First, a 1000 μg/mL stock solution (a final concentration of dimethyl sulfoxide (DMSO) was ≤2%) was prepared by dissolving a sample in DMSO/H2O. Then, the stock solution was diluted with Mueller-Hinton Broth (MHB) to an initial concentration of 100 μg/mL, and the sample solution (100 μL) was subjected to two-fold gradient dilution with MHB in a 96-well plate, to obtain 100 μg/mL to 0.78 μg/mL serial dilutions. Then, a bacterial suspension (100 μL) was added to each well of the 96-well plate and mixed with the test sample solution (100 μL). Among them, test systems for compounds 38, 44-45, 58-61 and 63-64 contained 0.05% of Tween 80. Finally, the 96-well plate was incubated at 37° C. for 24 hours. Absorbances at 600 nm at 0 and 24 h were measured. An minimum inhibitory concentration (MIC) value was defined as the lowest concentration where no visible bacterial growth occurred. All experiments were carried out in at least two duplicates, and biological repeatability could be achieved.

E. coli ATCC25922 = experiment: Antibacterial activity assay (broth dilution MIC); assay type: cell-based; conditions: Escherichia coli, 37° C., 24 h, compounds 38, 44-45, 58-61, 63-64 with 0.05% Tween 80
Description: as §1

rabbit red blood cells = experiment: Hemolytic activity assay; assay type: cell-based
Description: Hemolytic activity assay. Rabbit red blood cells were centrifuged at 2500 rpm for 3 minutes and then washed twice with PBS. Subsequently, a 8% (v/v) cell suspension was prepared by resuspending the rabbit red blood cells with PBS. A sample was first dissolved in DMSO or PBS (a final concentration of DMSO was ≤0.5%), and then diluted with PBS to prepare two-fold gradient dilutions (400 μg/mL to 3.125 μg/mL). The rabbit red blood cell suspension ([…]) was mixed with the two-fold gradient dilutions ([…]) of the sample. Then, the mixture was added to a sterile 96-well plate, incubated at 37° C. for 1 hour, and then centrifuged at 2500 rpm for 5 minutes. Among them, test systems for compounds 38, 44-45, 58-61 and 63-64 contained 0.05% of Tween 80. The supernatant (100 μL) was transferred to a new 96-well plate. Absorbance at 576 nm was measured using a Biotek multifunctional microplate reader. The positive control group was treated with a 2% Triton X-100 solution, and the negative control group was treated with PBS or 0.5% DMSO. The hemolytic activity was calculated by the following equation: % hemolytic activity=[(Abssample−Absnegative control)/(Abspositive control−Absnegative control)]×100. All experiments were carried out in at least two duplicates, and biological repeatability could be achieved.

Gram-positive bacteria = experiment: Antibacterial activity against Gram-positive bacteria (MIC summary); assay type: cell-based; conditions: 24 h; summary of tables 1 and 2; read-out: minimum inhibitory concentration (MIC) against Gram-positive bacteria
Description: as §1

MRSA NCTC10442 = experiment: Antibacterial activity assay (broth dilution MIC); assay type: cell-based, methicillin-resistant Staphylococcus aureus; conditions: Staphylococcus aureus, 37° C., 24 h, compounds 38, 44-45, 58-61, 63-64 with 0.05% Tween 80
Description: as §1

MRSA N315 = experiment: Antibacterial activity assay (broth dilution MIC); assay type: cell-based, methicillin-resistant Staphylococcus aureus; conditions: Staphylococcus aureus, 37° C., 24 h, compounds 38, 44-45, 58-61, 63-64 with 0.05% Tween 80
Description: as §1

S. aureus ATCC29213 [2] = experiment: Evaluation of development tendency of drug resistance; assay type: cell-based; conditions: S. aureus ATCC29213, passage at 0.5×MIC
Description: Evaluation of development tendency of drug resistance. Initial MIC values of compound 60, norfloxacin and gatifloxacin against S. aureus ATCC29213 were obtained by the above MIC determination method. Bacterial cells in a 96-well plate with a concentration of 0.5×MIC were taken out to prepare a bacterial suspension (about 1×10^6 CFU/mL) for the next MIC value determination. After incubating the sample at 37° C. for 24 hours, the change in the MIC value of each compound was measured. This experiment was carried out consecutively for 15 days.

[3] = system: mouse fibroblasts NCTC clone 929; experiment: Toxicity to mammalian cells (CCK-8); assay type: cell-based; conditions: 100 μg/mL, 24 h
Description: Assay of toxicity to mammalian cells. The cytotoxicities of a compound to be tested to mouse fibroblasts NCTC clone 929, mouse corneal cells CM120 and human hepatocellular carcinoma cells Hep-G2 were evaluated by a CCK-8 method. Cells were inoculated to a 96-well plate according to the cell amount described in a CCK-8 kit (Beyotime, PRC) specification, and cultured at 37° C. with 5% CO2 for 24 h. Then, a specific concentration of the sample to be tested was added to each well. Inoculation was further performed at 37° C. in an incubator for 24 h. Finally, a CCK-8 solution having a final concentration of 10% was added to each well. Incubation was further performed in the incubator for 1.0 h before absorbance at 450 nm (OD450) of the solution was measured by a microplate reader. According to formula (2), the cytotoxicity of the sample to be tested could be obtained:
[formula] • Asample: absorbance of a well with cells, a CCK8 solution and a sample solution to be tested; • Ablank: absorbance of a well with a culture medium and a CCK8 solution but without cells; and • Ano sample: absorbance of a well with cells and a CCK8 solution but without a sample solution to be tested.

S. aureus ATCC29213 [4] = experiment: Mouse model of bacterial peritonitis (abdominal infection); assay type: in vivo; conditions: 58 5 mg/kg intravenously every 4 hours; vancomycin 20 mg/kg IP; 5 mice per group
Description: CD-1 mice (6-8 weeks, with an average weight of 25 g) were used as an abdominal infection model. First, the mice were injected with S. aureus ATCC29213 (OD600≈1.0) intraperitoneally, and the mice were randomized into three groups (5 mice per group). After 1 hour of infection, one group was dosed with 58 (5 mg/kg) intravenously for treatment, once every 4 hours; and meanwhile, one group dosed with vancomycin (20 mg/kg, IP) was used as a positive control group, and the other group dosed with a 0.9% sodium chloride injection was used as a blank control group. After two days of treatment, the survival rate of the mice was investigated.

[5] = Pharmacokinetic characteristics in mice; assay type: in vivo
Gram-negative bacteria = experiment: Antibacterial activity against Gram-negative bacteria (MIC summary); assay type: cell-based; conditions: 24 h; summary of tables 1 and 2
Description: as §1

S. aureus ATCC29213 [6] = experiment: Mouse model of bacterial keratitis (cornea infection); assay type: in vivo; conditions: topical four times a day for three days; 0.5% compound 60, 5% vancomycin; P<0.01
Description: Evaluation of in vivo efficacy. The experiment for evaluating in vivo antibacterial efficacy of animals had been approved by the Laboratory Animal Center of South China Agricultural University and was carried out according to the policy of the Ministry of Health of the People's Republic of China. Female C57BL6 mice (6-8 weeks, with an average weight of 20 g) were used as a bacterial keratitis model. In order to establish an immunosuppressive mouse model, cyclophosphamide (100 mg/kg) was injected intraperitoneally to mice three times 5 days before infection. Bacterial cells (S. aureus ATCC 29213) inoculated onto a Mueller Hinton agar (MHA) plate were suspended with PBS, and the concentration of the bacterial cells was adjusted to about 5×10^7 CFU/mL for corneal infection in mice. First, the mice were anesthetized. Then, the cornea of the left eye of the mouse was scratched with a sterile needle, and 15 μL of bacterial suspension was dropped on the injured cornea. One day after infection, the mice were randomized into three groups (5 mice per group). Three compounds (0.5% 60, 5% glucose solution and 5% vancomycin) were applied topically four times a day for consecutive three days, respectively. […] Viable bacteria were counted by an MHA plate counting method. the P value was calculated using SPSS 22.0 software and P≤0.05 was considered as being statistically significant.

SMILES | MIC (S. aureus ATCC29213 [1]) | MIC (E. coli ATCC25922) | HC50 (concentration necessary to lyse 50% rabbit red blood cells) (rabbit red blood cells; rabbit, 1 h) | MIC (Gram-positive bacteria) | MIC (MRSA NCTC10442) | MIC (MRSA N315) | change in MIC value after 15 days of continuous passage (S. aureus ATCC29213 [2]) | cell survival rate, mouse fibroblasts NCTC clone 929 ([3]; CCK-8) | survival rate of mice after two days of treatment (S. aureus ATCC29213 [4]) | pharmacokinetic characteristics in mice [5] | HC50 (concentration necessary to lyse 50% rabbit red blood cells) (rabbit red blood cells; rabbit red blood cells, 37° C., 1 hour) | MIC (Gram-negative bacteria) | cell survival rate, mouse fibroblasts NCTC clone 929 ([3]; mouse) | reduction of the number of bacteria in the infected mouse cornea (S. aureus ATCC29213 [6])
C=C[C@](C)(/C=C/c1ccc(OCC(=O)N[C@@H](CCCNC(=N)N)C(=O)N[C@@H](CCCNC(=N)N)C(=O)N[C@@H](CCCNC(=N)N)C(=O)N[C@@H](CCCNC(=N)N)C(=O)N[C@@H](CCCNC(=N)N)C(=O)N[C@@H](CCCNC(=N)N)C(=O)OC)cc1)CCC=C(C)C [Compound 64] | 1.56 µg/mL (≈ 1.23 µM) | 25 µg/mL (≈ 19.8 µM) | more than 400 μg/mL | 0.39 to 3.12 µg/mL (≈ 0.308 to 2.47 µM) | 1.56 µg/mL (≈ 1.23 µM) | 1.56 µg/mL (≈ 1.23 µM) |  |  |  |  |  |  |  | 
CCn1cc(C(=O)O)c(=O)c2cc(F)c(N3CCNCC3)cc21 [norfloxacin, reference compound] |  |  |  |  |  |  | 16 fold |  |  |  |  |  |  | 
C=C[C@](C)(/C=C/c1ccc(OCC(=O)N[C@@H](CCCNC(=N)N)C(=O)N[C@@H](CCCNC(=N)N)C(=O)N[C@@H](CCCNC(=N)N)C(N)=O)cc1)CCC=C(C)C [Compound 58] | 0.39 µg/mL (≈ 0.499 µM) | 12.5 µg/mL (≈ 16 µM) |  | 0.39 to 3.12 µg/mL (≈ 0.499 to 4 µM) | 0.39 µg/mL (≈ 0.499 µM) | 0.39 µg/mL (≈ 0.499 µM) |  | 89.3±0.600 | 100% | excellent pharmacokinetic characteristics |  |  |  | 
C=C[C@@](C)(/C=C/c1ccc(OCCCCN(CCCN(C)C)CCCN(C)C)cc1)CCC=C(C)C [Compound 28] | 1.56 µg/mL (≈ 3.13 µM) | 3.12 µg/mL (≈ 6.28 µM) |  | 0.39 to 3.12 µg/mL (≈ 0.783 to 6.28 µM) | 1.56 µg/mL (≈ 3.13 µM) | 1.56 µg/mL (≈ 3.13 µM) |  |  |  |  | 112.9 ± 5.0 µg/mL | 1.56 to 3.12 µg/mL (≈ 3.13 to 6.28 µM) |  | 
C=C[C@](C)(/C=C/c1ccc(OCC(=O)N[C@@H](CCCNC(=N)N)C(=O)N[C@@H](CCCNC(=N)N)C(=O)N[C@@H](CCCNC(=N)N)C(=O)N[C@@H](CCCNC(=N)N)C(=O)OC)cc1)CCC=C(C)C [Compound 60] (X1-RRRR-OMe) | 0.39 µg/mL (≈ 0.409 µM) | 12.5 µg/mL (≈ 13.1 µM) | more than 400 μg/mL | 0.39 to 3.12 µg/mL (≈ 0.409 to 3.28 µM) | 0.78 µg/mL (≈ 0.818 µM) | 0.39 µg/mL (≈ 0.409 µM) | does not change significantly |  |  |  |  |  | 93.7±0.700 | 4.48 log
C=C[C@](C)(/C=C/c1ccc(OCC(=O)N[C@@H](CCCNC(=N)N)C(=O)N[C@@H](CCCNC(=N)N)C(=O)N[C@@H](CCCNC(=N)N)C(=O)N[C@@H](CCCNC(=N)N)C(N)=O)cc1)CCC=C(C)C [Compound 61] (X1-RRRR-NH2) | 0.78 µg/mL (≈ 0.831 µM) | 25 µg/mL (≈ 26.6 µM) | more than 400 μg/mL | 0.39 to 3.12 µg/mL (≈ 0.416 to 3.33 µM) | 0.78 µg/mL (≈ 0.831 µM) | 0.39 µg/mL (≈ 0.416 µM) |  |  |  |  |  |  |  | 
C=C[C@](C)(/C=C/c1ccc(OCC(=O)N[C@@H](CCCNC(=N)N)C(=O)N[C@@H](CCCNC(=N)N)C(=O)N[C@@H](CCCNC(=N)N)C(=O)N2CCN(c3ccc(N4C[C@H](CNC(C)=O)OC4=O)cc3F)CC2)cc1)CCC=C(C)C [Compound 63] | 0.78 µg/mL (≈ 0.708 µM) | 3.12 µg/mL (≈ 2.84 µM) |  | 0.39 to 3.12 µg/mL (≈ 0.354 to 2.84 µM) | 0.78 µg/mL (≈ 0.708 µM) | 0.78 µg/mL (≈ 0.708 µM) |  |  |  |  |  | 1.56 to 3.12 µg/mL (≈ 1.42 to 2.84 µM) |  | 
C=C[C@@](C)(/C=C/c1ccc(OCCCCN(C)CCCN(C)CCCNC)cc1)CCC=C(C)C [Compound 27] | 1.56 µg/mL (≈ 3.22 µM) | 1.56 µg/mL (≈ 3.22 µM) |  | 0.39 to 3.12 µg/mL (≈ 0.806 to 6.46 µM) | 1.56 µg/mL (≈ 3.22 µM) | 0.78 µg/mL (≈ 1.61 µM) |  |  |  |  |  | 1.56 to 3.12 µg/mL (≈ 3.22 to 6.46 µM) |  | 
CN[C@H](CC(C)C)C(=O)N[C@H]1C(=O)N[C@@H](CC(N)=O)C(=O)N[C@H]2C(=O)N[C@H]3C(=O)N[C@H](C(=O)N[C@H](C(=O)O)c4cc(O)cc(O)c4-c4cc3ccc4O)[C@H](O)c3ccc(c(Cl)c3)Oc3cc2cc(c3O[C@@H]2O[C@H](CO)[C@@H](O)[C@H](O)[C@H]2O[C@H]2C[C@](C)(N)[C@H](O)[C@H](C)O2)Oc2ccc(cc2Cl)[C@H]1O [vancomycin, reference compound] |  |  |  |  |  |  |  |  | 100% |  |  |  |  | 4.16 log
